Source: patent US11634381B2, “RUNX2 transcription factor inhibitors and uses thereof” (University of Maryland, Baltimore, priority 2015, dated 2023)

Assays:
breast cancer cells = assay: Caspase 3/7 assay; assay type: cell-based, human; settings: 50 μM, within 72 hrs
Protocol: Cells were cultured in 96-well plates (30,000 cells/well). After compound 1 treatment for 24-72 hrs, cellular apoptosis was analyzed using the Caspase-Glo 3/7 Assay kit (Promega) according to the manufacturer's instructions.

[1] = tested on: non-malignant cells (MCF10A, IEC-6, GES-1, C2C12); assay: Cell growth assay in non-malignant cells; assay type: cell-based, human, rat, murine; settings: 0˜100 μM, 24˜72 hrs
Protocol: Cells wereplated on 96-well (30,000 cells/well) or 24-well plates (50,000 cells/well). After CADD522 (0˜100 μM) addition, cells were incubated for 24˜72 hrs. Cells were stained with crystal violet (0.5% in Methanol:Acetic Acid=3:1) and washed with PBS. Crystal violet was solubilized in DMSO and measured in a microplate reader at 592 nm.

TAZ = assay: Nuclear TAZ levels by Western blot; assay type: cell-based, human
Protocol: MCF7 cells were grown to subconfluence in the presence or absence of doxycycline for 72 hr in full media as described above. Cells were then treated in minimal DMEM (Sigma, D5030) containing 0.1% BSA, 1% L-glutamine, 2% Tet-Approved FBS, and 1 mM glucose for 16 hours followed by treatment with 2 ng/mL TGFβ (R&D Systems, 240-B-002) for 48 hours in the presence or absence of EGTA to examine sE-Cad expression levels, TAZ localization, and HER2 expression levels. Cells were washed with PBS and scraped from plates. Cytoplasmic and nuclear lysates were obtained using the Low/High Salt extraction method. Cytoplasmic extracts were obtained by resuspending cells in NP40 containing Hypotonic Buffer (10 mM HEPES pH 7.4, 1.5 mM MgCl2, 10 mM KCI, 0.5% NP40) followed by a 30 min incubation on ice and centrifiugation. Nuclear extracts were obtained by resuspending the nuclear pellet in an equal volume of low salt buffer (10 mM HEPES, 25% glycerol, 1.5 mM MgCl2, 20 mM KCI, 0.2 mM EDTA) followed by high salt buffer (10 mM HEPES, 25% glycerol, 1.5 mM MgCl2, 800 mM KCl, 0.2 mM EDTA) followed by vortexing, 30 min incubation on ice, another vortex, and centrifugation. Samples were resolved on 4-12% Bis-Tris polyacrylamide gradient gels (Invitrogen) and transferred to PVDF membranes (Millipore). Membranes were probed with antibodies listed below followed by development with enhanced ECL (Millipore). […] Protein levels were normalized to actin and quantified using NIH Image-J software.
MCF7 Tet.OFF cells were pretreated in the absence or presence of doxycycline for 3 days. […] Nuclear and cytoplasmic extracts were obtained using High/Low salt extraction method and protein levels analyzed by Western blot (see above).

BC cell lines = assay: Clonogenic survival assay; assay type: cell-based, human; settings: 50 μM
Protocol: Cells were plated on 6-well plates (200˜500 cells/well). After compound 1 (50 μM) treatment, cells were incubated for 2-3 weeks without changing media. Colonies were fixed in Methanol-Acetic Acid solution (3:1) and stained with crystal violet (0.5%). After washing, colonies were photographed and counted.

mammary tumors = assay: MMTV-PyMT transgenic mouse model; assay type: in vivo, MMTV-PyMT mice
Protocol: For the MMTV polyoma middle T antigen (PyMT) mouse model, female mice were purchased from Jackson Laboratory. As mice developed first palpable mammary tumors after 5 weeks of age, mice were randomly assigned to 4 treatment groups at 6 weeks of age and received i.p. injections of compound 1 (1, 5 and 20 mg/kg/group) or equivalent volumes of vehicle (10% DMSO/90% PBS) (200 μl) twice a week. Palpable tumors were monitored every 1 to 2 days until 12 weeks of age to determine tumor incidence (number of tumors per mouse) and onset (the age of palpable tumors). Tumor weight was quantified at the final day after mice were euthanized and tumors were excised. Tumor volume [(length×width^2)/2] was measured by caliper.

PDH = PDH enzymatic activity microtiter plate assay; assay type: cell-based, human; settings: MDA-MB-468 and MCF7, 50 μM
Protocol: In FIG. 23A PDH enzymatic activity was determined in doxycycline-responsive MCF7-tet-off (left) and Hs578t-Control or RUNX2 KD cells (right) or non-targeting control siRNA (NTC=RUNX2+) versus RUNX2 KD (55.5 cells=RUNX2 KD) using an antibody-specific microtiter plate assay. Results are expressed as the change in Absorbance at 450 nm per minute per mg protein (ΔmOD450/min/mg) (*p<0.05). In FIG. 23B PDH activity was determined in MDA-MB-468 (left) and MCF7 (right) BC cell lines with or without compound 1 treatment (50 μM) for the indicated time period.

Compound: O=C(O)C1C2C=CC(C2)C1C(=O)Nc1ccc(Cl)c(Cl)c1 (stereo not drawn) [compound 1, 3-(N-(3,4-dichlorophenyl)carbamoyl)-5-norbornene-2-carboxylic acid]
- caspase-3/7 activity compared to vehicle controls (breast cancer cells): no change
- sensitivity of non-malignant cells versus BC cell lines [1]: much lower
- reduction in nuclear TAZ levels compared to vehicle (TAZ; HCC1428 cells expressing endogenous RUNX2): 80%
- nuclear TAZ levels (TAZ; RUNX2 negative cells (doxycycline +), over 72 hr): no affect
- TAZ nuclear levels (TAZ; RUNX2 positive MCF7 cells (doxycycline -), 50 μM, within 24 hr): lowered
- clonogenic survival (BC cell lines; 2˜3 weeks, 11 out of 13 BC cells): less than 50%
- clonogenic cell survival (BC cell lines; 2˜3 weeks, BT549, HCC70, MDA-468, MCF7, HCC361, BT474): less than 10%
- clonogenic survival (BC cell lines; 2˜3 weeks, MDA-231 and Hs578t): > 50%
- clonogenic survival (BC cell lines; 2˜3 weeks, MDA-468 and BT474): did not survive
- clonogenicity (BC cell lines; T47D-Empty and T47D-RUNX2 cells, 14 days): dramatically diminished
- tumor incidence per mouse at the final day (mean±SEM) (mammary tumors; 1 mg/Kg): 4.14±0.88
- tumor onset, Frequency of mode (mammary tumors; 1 mg/kg): 8
- tumor onset, Mode (mammary tumors; 1 mg/kg): 43
- tumor onset, range (mammary tumors; 1 mg/kg): 15˜45
- mice with less than 3 tumors (mammary tumors; 5 mg/Kg): 40%
- tumor incidence per mouse at the final day (mean±SEM) (mammary tumors; 5 mg/Kg): 3.05±2.57
- tumor onset, Frequency of mode (mammary tumors; 5 mg/kg): 11
- tumor onset, Mode (mammary tumors; 5 mg/kg): 43
- tumor onset, range (mammary tumors; 5 mg/kg): 1˜45
- fraction of mice with over 6 tumors (mammary tumors; 20 mg/Kg): no mice
- mice with less than 3 tumors (mammary tumors; 20 mg/Kg): 55%
- tumor incidence per mouse at the final day (mean±SEM) (mammary tumors; 20 mg/Kg): 2.57±0.72
- tumor onset, Frequency of mode (mammary tumors; 20 mg/kg): 9
- tumor onset, Mode (mammary tumors; 20 mg/kg): 40
- tumor onset, range (mammary tumors; 20 mg/kg): 22˜45
- tumor weight (mammary tumors; 1, 5, 20 mg/Kg): reduction
- staining of Ki67 in tumor sections versus control mice (mammary tumors; IHC): much weaker
- onset of the tumors (mammary tumors; i.p., up to 20 mg/kg, 45 days): significantly delayed
- body weight and general health (mammary tumors; up to 20 mg/kg, MMTV-PyMT mice): did not significantly decrease body weight
- PDH activity (PDH): increases PDH activity
